Data as given in ChEMBL document CHEMBL6177942, “Recent advances of selenized tubulin inhibitors in cancer therapy” (Bioorg Med Chem Lett, 2025).

Tests used:
[1] = tested on: HepG2; assay: Antiproliferative activity against human HepG2 cells assessed as reduction in cell viability incubated for 48 hrs by MTT assay; type: functional, cell-based; conditions: HepG2, 48 h
[2] = tested on: MDA-MB-231; assay: Antiproliferative activity against human MDA-MB-231 cells assessed as reduction in cell viability incubated for 48 hrs by MTT assay; type: functional, cell-based; conditions: MDA-MB-231, 48 h
[3] = tested on: HCT-116; assay: Antiproliferative activity against human HCT-116 cells assessed as reduction in cell viability incubated for 48 hrs by MTT assay; type: functional, cell-based; conditions: HCT-116, 48 h
[4] = tested on: RKO; assay: Antiproliferative activity against human RKO cells assessed as reduction in cell viability incubated for 48 hrs by MTT assay; type: functional, cell-based
[5] = tested on: HeLa; assay: Antiproliferative activity against human HeLa cells assessed as reduction in cell viability incubated for 48 hrs by MTT assay; type: functional, cell-based
[6] = tested on: A549; assay: Antiproliferative activity against human A549 cells assessed as reduction in cell viability incubated for 48 hrs by MTT assay; type: functional, cell-based; conditions: A549, 48 h
[7] = tested on: HT-1080; assay: Antiproliferative activity against human HT-1080 cells assessed as reduction in cell viability by MTT assay; type: functional, cell-based
[8] = tested on: KB; assay: Antiproliferative activity against human KB cells assessed as reduction in cell viability by MTT assay; type: functional, cell-based
[9] = tested on: SGC-7901; assay: Antiproliferative activity against human SGC-7901 cells assessed as reduction in cell viability by MTT assay; type: functional, cell-based
[10] = tested on: RKO; assay: Antiproliferative activity against human RKO cells assessed as reduction in cell growth measured for 48 hrs by MTT assay; type: functional, cell-based; conditions: pooled result: one value given for 6 cell lines, strains, targets or settings
[11] = tested on: NCI/ADR-RES; assay: Antiproliferative activity against human MCF7ADR cells assessed as reduction in cell viability incubated for 72 hrs by MTT assay; type: functional, cell-based
[12] = tested on: MDA-MB-231; assay: Antiproliferative activity against human MDA-MB-231 cells assessed as reduction in cell viability incubated for 72 hrs by MTT assay; type: functional, cell-based; conditions: MDA-MB-231, 72 h
[13] = tested on: MCF7; assay: Antiproliferative activity against human MCF7 cells assessed as reduction in cell viability incubated for 72 hrs by MTT assay; type: functional, cell-based; conditions: MCF7, 72 h
[14] = Antiproliferative activity against human MCF-10A cells assessed as reduction in cell viability incubated for 72 hrs by MTT assay; type: toxicity, cell-based

## COc1cc(C(=O)/C=C/c2c[nH]c3ccccc23)cc([Se]C)c1OC
[1]
  IC50: 29 nM
[2]
  IC50: 29 nM
[3]
  IC50: 29 nM
[4]
  IC50: 29 nM
[5]
  IC50: 29 nM
[6]
  IC50: 29 nM

## COc1ccc([Se]c2c(C)[nH]c3c(OC)c(OC)c(OC)cc23)cc1O
[7]
  IC50: 14 nM
[8]
  IC50: 25 nM
[9]
  IC50: 54 nM

## COc1ccc([Se]c2c[nH]c3c(OC)c(OC)c(OC)cc23)cc1O
[7]
  IC50: 1000 nM
[8]
  IC50: 640 nM
[9]
  IC50: 220 nM

## CN(c1ccc([Se]C#N)cc1)c1nc(Cl)nc2ccccc12
[10]
  IC50: 3.39 nM

## COc1nc(N(C)c2ccc([Se]C)cc2)c2ccccc2n1
[10]
  IC50: 4.78 nM

## Cc1cc([Se]C#N)ccc1N(C)c1nc(Cl)nc2ccccc12
[10]
  IC50: 37.9 nM

## C[Se]c1ccc(N(C)c2nc(=O)[nH]c3ccccc23)cc1
[10]
  IC50: 17.4 nM

## COc1ccc([Se](=O)c2cc(OC)c(OC)c(OC)c2)cc1O (stereo not given)
[11]
  IC50: 26.3 nM
[12]
  IC50: 6.3 nM
[13]
  IC50: 25 nM
[14]
  IC50 at 72 h: 131 nM

## C[Se]c1ccc(N(C)c2nc(Cl)nc3ccccc23)cc1
[10]
  IC50: 2.77 nM

## Cc1cc(N(C)c2nc(Cl)nc3ccccc23)ccc1[Se]C#N
[10]
  IC50: 6.01 nM

## COc1ccc(/C=C\c2cc(OC)c(OC)c(OC)c2)cc1O [COMBRETASTATIN A4]
[7]
  IC50: 11 nM
[8]
  IC50: 4 nM
[9]
  IC50: 11 nM
